This note sets out measurements from patent publication US20080118434A1 (The Board of the Trustees of The Leland Stanford J, priority 2003, published 2008).

Assay [1] has as its system hippocampal genes (mRNA levels). Nature of the assay: Microarray analysis (GeneChip Rat Neurobiology U34) of gene expression in hippocampus of rats treated chronically with antidepressants. The format is in vivo. The conditions noted are these: for hippocampal genes commonly regulated by fluoxetine and desipramine (list: Glutathione peroxidase 1 ... Insulin like growth factor II, Somatostatin): 10 mg/kg/d each; for hippocampal genes commonly regulated by fluoxetine and desipramine (list: Glutathione peroxidase 1 ... Insulin like growth factor II, Somatostatin) / hippocampal genes commonly regulated by desipramine and bupropion (list: NG,NG dimethylarginine dimethylaminohydrolase ... Retina S-antigen) / hippocampal genes commonly regulated by fluoxetine and bupropion (list: Transferrin ... Carbonic anhydrase 2): i.p., four weeks, vs saline; for hippocampal genes commonly regulated by fluoxetine and desipramine (list: Glutathione peroxidase 1 ... Insulin like growth factor II, Somatostatin) / hippocampal genes commonly regulated by desipramine and bupropion (list: NG,NG dimethylarginine dimethylaminohydrolase ... Retina S-antigen): >20% fold change, p<0.05; for hippocampal genes commonly regulated by desipramine and bupropion (list: NG,NG dimethylarginine dimethylaminohydrolase ... Retina S-antigen): desipramine 10 mg/kg/d; for hippocampal genes commonly regulated by desipramine and bupropion (list: NG,NG dimethylarginine dimethylaminohydrolase ... Retina S-antigen) / hippocampal genes commonly regulated by fluoxetine and bupropion (list: Transferrin ... Carbonic anhydrase 2): bupropion 20 mg/kg/day; for hippocampal genes commonly regulated by fluoxetine and bupropion (list: Transferrin ... Carbonic anhydrase 2): fluoxetine 10 mg/kg/d, selected results confirmed by real time RT-PCR. The protocol: (§1) Adult Sprague-Dawley male rats (250-300 g) were assigned to one of the following four groups (n=10 per group): 1. Saline injected animals (controls). 2. Bupropion treated animals. 3. Desipramine treated animals, and 4. Fluoxetine treated animals. Bupropion (20 mg/kg/day), Desipramine (10 mg/kg/d), Fluoxetine (10 mg/kg/d) and Saline were injected twice daily intraperitoneal (i.p.) for four weeks. Animals were sacrificed in the AM, the day after the last injection. Brains were obtained by rapid decapitation, and processed for gene array analysis (GAA), RT-PCR and in situ hybridization.
(§2) Four brains from each group were used for GAA, and real time RT-PCR confirmation. The remaining six brains were sectioned for in situ hybridization confirmation of the gene array analysis.
(§3) Array analysis was done using GeneChip® Rat Neurobiology U34 Arrays (Affymetrix). Whole hippocampus were dissected and total RNA samples were extracted using standard methods (Trizol, Invitrogen; Quigen Rneasy Mini Kit). Total RNA from each of the experimental groups were pooled. The column purified total RNA (10 μg) was converted to biotinylated cRNA hybridization probe following the manufacturers protocol. Labeled cRNA (30 ug) was fragmented in fragmentation buffer, and 15 ug were hybridized to the oligonucletide microarray in 300 μl of hybridization solution.
(§4) Samples from each group were run in independently labeled triplicates. The raw intensity data was analyzed with dCHIP software (Li and Wong, 2002).
Using a criteria of greater than 20% fold change (90% lower bound confidence limit) and a t-test value yielding a probability of p<0.05, we found 28 genes that were regulated by all three antidepressants compared to saline treatment. Nine of these genes were ESTs.
Regulation of these genes can conveniently be confirmed by Real Time RT-PCR, and in situ hybridization. Regulation of two of the genes has been confirmed by RT-PCR.

Assay [2] has as its system hypothalamic genes (mRNA levels). Nature of the assay: Microarray analysis of gene expression in hypothalamus of rats treated chronically with antidepressants. The class given is in vivo, rat. The settings on record: rats treated with fluoxetine, bupropion and/or desipramine; i.p. twice daily for four weeks.
From the text: Membrane microarray analysis was used to compare expression levels of over 8,000 genes in the hypothalamus of rats treated chronically with a specific serotonin reuptake inhibitor (i.e., fluoxetine), a tricyclic antidepressant (i.e., desipramine), and a dopamine reuptake inhibitor (i.e., bupropion).
as §1, §2, §3, §4
Genes were identified using a criteria of greater than 20% fold change (90% lower bound confidence limit) and a t-test value yielding a probability of p<0.05.
The microarray analysis results were confirmed by in situ hybridization.

[3] abbreviates: rats treated with desipramine and/or bupropion.
Where [4] appears, read: rats treated with fluoxetine and/or desipramine.
[5] abbreviates: rats treated with fluoxetine, bupropion and/or desipramine, i.p. twice daily for four weeks.
[6] abbreviates: rats treated with bupropion and/or fluoxetine.

Take `CNCCCN1c2ccccc2CCc2ccccc21` [desipramine]: the “hippocampal genes commonly regulated by fluoxetine and desipramine (list: Glutathione peroxidase 1 ... Insulin like growth factor II, Somatostatin)” value in assay [1] is given as “commonly regulated”. For the same compound, in assay [1], the “hippocampal genes commonly regulated by desipramine and bupropion (list: NG,NG dimethylarginine dimethylaminohydrolase ... Retina S-antigen)” value is recorded as “commonly regulated”. The “number of hippocampal genes with altered mRNA levels” value (“number of hippocampal genes” below) in assay [1] (setting [3]) turned out to be 46; in assay [1] (setting [4]) it was 33; in assay [1] (setting [5]), 18. For the same compound, the “number of hypothalamic genes with altered mRNA levels” value (“number of hypothalamic genes” for short) in assay [2] is listed as 3.
Take `CNCCC(Oc1ccc(C(F)(F)F)cc1)c1ccccc1` (stereo not drawn) [fluoxetine]: the “hippocampal genes commonly regulated by fluoxetine and desipramine (list: Glutathione peroxidase 1 ... Insulin like growth factor II, Somatostatin)” value in assay [1] was “commonly regulated”. The “hippocampal genes commonly regulated by fluoxetine and bupropion (list: Transferrin ... Carbonic anhydrase 2)” value in assay [1] is on record as “commonly regulated”. The “number of hippocampal genes” value in assay [1] (setting [6]) is given as 11; in assay [1] (setting [4]) it was 33; in assay [1] (setting [5]), 18. For the same compound, the “number of hypothalamic genes” value in assay [2] came to 3.
In the case of `CC(NC(C)(C)C)C(=O)c1cccc(Cl)c1` (stereo not drawn) [bupropion], the “hippocampal genes commonly regulated by desipramine and bupropion (list: NG,NG dimethylarginine dimethylaminohydrolase ... Retina S-antigen)” value in assay [1] is given as “commonly regulated”. In assay [1], the “hippocampal genes commonly regulated by fluoxetine and bupropion (list: Transferrin ... Carbonic anhydrase 2)” value is “commonly regulated”. In addition, the “number of hippocampal genes” value was 11 in assay [1] (setting [6]), 46 in assay [1] (setting [3]) and 18 in assay [1] (setting [5]). Besides, the “number of hypothalamic genes” value in assay [2] came to 3.
